Assay results as given in patent publication US6890936B2, “Muscarinic antagonists” (Schering Corporation, priority 2002, dated 2005).

Assays:
Settings in all cases: membranes from stably transfected CHO cells, 3H-QNB 100-200 pM, 25° C., 90 minutes
[1] = target: T1, cloned human M2 muscarinic receptor (Homo sapiens, UniProt P08172); test: Muscarinic binding activity, 3H-QNB displacement, M2
T1 sequence (P08172 1-466): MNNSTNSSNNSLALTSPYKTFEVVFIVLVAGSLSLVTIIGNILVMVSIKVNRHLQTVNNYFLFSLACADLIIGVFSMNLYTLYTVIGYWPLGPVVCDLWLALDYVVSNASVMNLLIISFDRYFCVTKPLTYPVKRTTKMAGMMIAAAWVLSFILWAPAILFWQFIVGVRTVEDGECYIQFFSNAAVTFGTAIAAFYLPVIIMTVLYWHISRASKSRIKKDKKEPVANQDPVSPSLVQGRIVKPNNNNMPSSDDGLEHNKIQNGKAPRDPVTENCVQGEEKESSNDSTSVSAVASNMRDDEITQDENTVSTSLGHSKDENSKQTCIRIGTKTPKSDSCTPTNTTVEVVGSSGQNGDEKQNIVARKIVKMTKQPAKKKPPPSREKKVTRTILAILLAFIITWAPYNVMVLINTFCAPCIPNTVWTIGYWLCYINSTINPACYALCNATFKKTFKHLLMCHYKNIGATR

[2] = target: T2, cloned human M1 muscarinic receptor (Homo sapiens, UniProt P11229); test: Muscarinic binding activity, 3H-QNB displacement, M1
T2 sequence (P11229 1-460): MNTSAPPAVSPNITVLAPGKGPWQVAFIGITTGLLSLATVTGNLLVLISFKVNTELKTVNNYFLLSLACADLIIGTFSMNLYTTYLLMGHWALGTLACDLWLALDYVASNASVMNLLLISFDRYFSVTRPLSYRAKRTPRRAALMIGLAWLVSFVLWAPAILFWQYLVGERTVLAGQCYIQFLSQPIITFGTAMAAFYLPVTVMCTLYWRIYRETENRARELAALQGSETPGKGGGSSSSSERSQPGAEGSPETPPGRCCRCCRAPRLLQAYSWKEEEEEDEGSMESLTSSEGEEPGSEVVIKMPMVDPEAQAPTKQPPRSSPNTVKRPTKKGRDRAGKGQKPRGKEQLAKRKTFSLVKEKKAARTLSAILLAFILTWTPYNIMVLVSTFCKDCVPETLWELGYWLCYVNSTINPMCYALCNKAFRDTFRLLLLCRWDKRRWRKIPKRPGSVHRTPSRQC

[3] = target: T3, cloned human M4 muscarinic receptor (Homo sapiens, UniProt P08173); test: Muscarinic binding activity, 3H-QNB displacement, M4
T3 sequence (P08173 1-479): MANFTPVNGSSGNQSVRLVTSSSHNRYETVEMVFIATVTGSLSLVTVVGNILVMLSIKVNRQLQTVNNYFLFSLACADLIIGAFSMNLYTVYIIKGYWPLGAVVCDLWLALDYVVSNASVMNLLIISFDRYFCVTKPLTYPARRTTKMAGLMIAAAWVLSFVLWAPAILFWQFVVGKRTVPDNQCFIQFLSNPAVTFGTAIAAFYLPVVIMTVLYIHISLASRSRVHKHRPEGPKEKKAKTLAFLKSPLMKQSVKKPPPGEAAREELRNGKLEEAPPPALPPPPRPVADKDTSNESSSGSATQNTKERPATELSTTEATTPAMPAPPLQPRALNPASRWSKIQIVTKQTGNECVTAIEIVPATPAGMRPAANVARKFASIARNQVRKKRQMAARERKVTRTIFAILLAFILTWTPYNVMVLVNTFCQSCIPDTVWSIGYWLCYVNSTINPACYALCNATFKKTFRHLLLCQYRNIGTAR

[4] = target: cloned human M3 muscarinic receptor (Homo sapiens, UniProt P20309); test: Muscarinic binding activity, 3H-QNB displacement, M3
[5] = target: T4, cloned human M5 muscarinic receptor (Homo sapiens, UniProt P08912); test: Muscarinic binding activity, 3H-QNB displacement, M5
T4 sequence (P08912 1-532): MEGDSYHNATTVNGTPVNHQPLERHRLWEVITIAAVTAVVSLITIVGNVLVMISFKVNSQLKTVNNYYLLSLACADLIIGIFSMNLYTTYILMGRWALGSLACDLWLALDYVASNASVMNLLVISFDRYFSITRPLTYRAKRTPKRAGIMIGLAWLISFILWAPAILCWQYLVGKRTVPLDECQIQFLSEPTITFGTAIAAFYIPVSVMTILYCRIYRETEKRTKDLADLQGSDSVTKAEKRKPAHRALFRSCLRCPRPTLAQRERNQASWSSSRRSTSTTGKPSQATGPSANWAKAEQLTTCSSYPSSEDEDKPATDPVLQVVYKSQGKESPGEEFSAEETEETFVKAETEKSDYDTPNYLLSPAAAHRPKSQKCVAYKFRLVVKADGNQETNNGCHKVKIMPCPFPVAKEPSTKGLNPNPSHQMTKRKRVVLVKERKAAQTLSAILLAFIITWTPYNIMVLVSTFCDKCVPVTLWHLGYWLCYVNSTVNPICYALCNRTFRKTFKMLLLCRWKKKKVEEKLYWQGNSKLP

cloned human M3 muscarinic receptor, sequence (P20309 whole entry): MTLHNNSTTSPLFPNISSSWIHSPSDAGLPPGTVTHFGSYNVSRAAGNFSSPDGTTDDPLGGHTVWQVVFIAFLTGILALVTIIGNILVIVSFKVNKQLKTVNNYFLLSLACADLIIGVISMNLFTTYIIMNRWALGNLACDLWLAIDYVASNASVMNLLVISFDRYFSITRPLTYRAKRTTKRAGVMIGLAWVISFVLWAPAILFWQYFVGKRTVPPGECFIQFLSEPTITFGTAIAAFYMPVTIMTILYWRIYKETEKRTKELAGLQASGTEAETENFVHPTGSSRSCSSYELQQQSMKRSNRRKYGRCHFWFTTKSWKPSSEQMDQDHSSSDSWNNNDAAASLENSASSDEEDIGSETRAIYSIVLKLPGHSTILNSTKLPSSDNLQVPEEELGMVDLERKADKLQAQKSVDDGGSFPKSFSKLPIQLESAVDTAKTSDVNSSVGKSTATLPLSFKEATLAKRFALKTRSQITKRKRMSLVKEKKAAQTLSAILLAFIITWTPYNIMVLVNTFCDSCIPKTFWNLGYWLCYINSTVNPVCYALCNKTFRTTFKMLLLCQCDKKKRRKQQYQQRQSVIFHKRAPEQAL

Structure (SMILES): CC(C)Oc1ccc(C2C(Cl)(Cl)C23CCN(C2CCN(C(=O)c4ccc(F)c5ccccc45)CC2)CC3)cc1 (stereo not shown) [Compound 13]
- Ki [1]: > 1900 nM
- Ki [2]: > 1200 nM

Structure (SMILES): CC(C)Oc1ccc(C2C(Cl)(Cl)C23CCN(C2CCN(C(=O)c4cccc(Cl)c4Cl)CC2)CC3)cc1 (stereo not shown) [Compound 3]
- Ki [1]: > 1440 nM
- Ki [2]: > 996 nM
- Ki [3]: > 1000 nM
- Ki [4]: > 1000 nM
- Ki [5]: > 1500 nM

Structure (SMILES): CC(C)Oc1ccc(C2C(Cl)(Cl)C23CCN(C2CCN(C(=O)c4cccc(Cl)c4N)CC2)CC3)cc1 (stereo not shown) [Compound 5]
- Ki [1]: 1390 nM
- Ki [2]: > 990 nM
- Ki [3]: > 1000 nM
- Ki [4]: > 1000 nM
- Ki [5]: 786 nM

Structure (SMILES): CC(C)Oc1ccc(C2C(Cl)(Cl)C23CCN(C2CCN(C(=O)c4cccc(F)c4N)CC2)CC3)cc1 (stereo not shown) [Compound 6]
- Ki [1]: 1200 nM
- Ki [2]: > 990 nM
- Ki [3]: > 1000 nM
- Ki [4]: > 1000 nM
- Ki [5]: 42 nM

Structure (SMILES): Cc1cccc(C)c1C(=O)N1CCC(N2CCC3(CC2)C(c2ccc(OC(C)C)cc2)C3(Cl)Cl)CC1 (stereo not shown) [Compound 17]
- Ki [1]: > 1900 nM
- Ki [2]: > 1200 nM

Structure (SMILES): Cc1c(Cl)cccc1C(=O)N1CCC(N2CCC3(CC2)CC3c2ccc(OC(C)C)cc2)CC1 (stereo not shown) [Compound 7]
- Ki [1]: > 1380 nM
- Ki [2]: > 900 nM
- Ki [3]: > 1000 nM
- Ki [4]: > 1000 nM
- Ki [5]: > 1500 nM

Structure (SMILES): CC(C)Oc1ccc(C2C(Cl)(Cl)C23CCN(C2CCN(C(=O)c4cccc5c(Br)cccc45)CC2)CC3)cc1 (stereo not shown) [Compound 14]
- Ki [1]: > 1900 nM
- Ki [2]: > 1200 nM

Structure (SMILES): Cc1c(Cl)cccc1C(=O)N1CCC(N2CCC3(CC2)CC3(C)c2ccc(OC(C)C)cc2)CC1 (stereo not shown) [Compound 12]
- Ki [1]: 113 nM
- Ki [2]: 744 nM
- Ki [3]: 272 nM
- Ki [4]: > 1200 nM
- Ki [5]: 1210 nM

Structure (SMILES): CC(C)Oc1ccc(C2CC23CCN(C2CCN(C(=O)c4cccc(Cl)c4Cl)CC2)CC3)cc1 (stereo not shown) [Compound 8]
- Ki [1]: 607 nM
- Ki [2]: 819 nM
- Ki [3]: > 1000 nM
- Ki [4]: > 1000 nM
- Ki [5]: > 1500 nM

Structure (SMILES): Cc1cccc(C(=O)N2CCC(N3CCC4(CC3)C(c3ccc(OC(C)C)cc3)C4(Cl)Cl)CC2)c1Cl (stereo not shown) [Compound 1]
- Ki [1]: > 1400 nM
- Ki [2]: > 990 nM
- Ki [3]: > 1000 nM
- Ki [4]: > 1000 nM
- Ki [5]: 891 nM

Structure (SMILES): CC(C)Oc1ccc(C2C(Cl)(Cl)C23CCN(C2CCN(S(=O)(=O)c4cccc5ccccc45)CC2)CC3)cc1 (stereo not shown) [Compound 16]
- Ki [1]: 1840 nM
- Ki [2]: > 1200 nM

Structure (SMILES): CCCS(=O)(=O)N1CCC(N2CCC3(CC2)C(c2ccc(OC(C)C)cc2)C3(Cl)Cl)CC1 (stereo not shown) [Compound 15]
- Ki [1]: 481 nM
- Ki [2]: > 1200 nM

Structure (SMILES): CC(C)Oc1ccc(C2CC23CCN(C2CCN(C(=O)c4cccc(Cl)c4N)CC2)CC3)cc1 (stereo not shown) [Compound 9]
- Ki [1]: 490 nM
- Ki [2]: > 900 nM
- Ki [3]: > 1000 nM
- Ki [4]: > 1000 nM
- Ki [5]: > 1500 nM

Structure (SMILES): CC(C)Oc1ccc(C2(C)CC23CCN(C2CCN(C(=O)c4cccc(Cl)c4N)CC2)CC3)cc1 (stereo not shown) [Compound 11]
- Ki [1]: 49 nM
- Ki [2]: 600 nM
- Ki [3]: 151 nM
- Ki [4]: 691 nM
- Ki [5]: 619 nM

Structure (SMILES): CC(C)Oc1ccc(C2(C)CC23CCN(C2CCN(C(=O)c4cccc(Cl)c4Cl)CC2)CC3)cc1 (stereo not shown) [Compound 10]
- Ki [1]: 149 nM
- Ki [2]: 1010 nM
- Ki [3]: 261 nM
- Ki [4]: > 1200 nM
- Ki [5]: 995 nM

Structure (SMILES): Cc1cccc(C(=O)N2CCC(N3CCC4(CC3)C(c3ccc(OC(C)C)cc3)C4(Cl)Cl)CC2)c1N (stereo not shown) [Compound 4]
- Ki [1]: 77 nM
- Ki [2]: > 990 nM
- Ki [3]: > 1000 nM
- Ki [4]: > 1000 nM
- Ki [5]: 96 nM

Structure (SMILES): Cc1c(Cl)cccc1C(=O)N1CCC(N2CCC3(CC2)C(c2ccc(OC(C)C)cc2)C3(Cl)Cl)CC1 (stereo not shown) [Compound 2]
- Ki [1]: > 1400 nM
- Ki [2]: 982 nM
